In US10131652B2, “Pyrimidinyloxy benzene derivatives as herbicides” (E. I. DU PONT DE NEMOURS AND COMPANY, priority 2014, dated 2018):

Columns and labels:
Format in all cases: in vivo
[1] = system: barnyardgrass (Echinochloa crus-galli); assay: Test B pre-/postemergence plant response
Procedure, shortened: (§1)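 Ratings reflect visual injury versus untreated controls, from 0 for no effect to 100 for complete control, assessed roughly 10 days after treatment. Formulation: non-phytotoxic solvent mix with surfactant; pre- and postemergence sprays on plants grown in loam soil and sand.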

[2] = system: Italian ryegrass (Lolium multiflorum); assay: Test B pre-/postemergence plant response
Procedure, shortened: as §1

[3] = system: wheat (Triticum aestivum); assay: Test B pre-/postemergence plant response; conditions: 0 to 100 scale, 0 no effect, 100 complete control
Procedure, shortened: as §1

[4] = system: pigweed (Amaranthus retroflexus); assay: Test B pre-/postemergence plant response
Procedure, shortened: as §1

[5] = system: giant foxtail (Setaria faberii); assay: Test B pre-/postemergence plant response
Procedure, shortened: as §1

[6] = system: ragweed (common ragweed, Ambrosia elatior); assay: Test B pre-/postemergence plant response
Procedure, shortened: as §1

corn (Zea mays) = assay: Test B pre-/postemergence plant response; conditions: 0 to 100 scale, 0 no effect, 100 complete control
Procedure, shortened: as §1

kochia (Kochia scoparia) [7] = assay: Test B pre-/postemergence plant response
Procedure, shortened: as §1

[8] = system: chickweed (common chickweed, Stellaria media); assay: Test D postemergence plant response; conditions: for Chickweed plant response rating: scale 0 to 100 (0 no effect, 100 complete control); for Plant response rating, Chickweed: scale 0 to 100, 0 no effect, 100 complete control
Procedure, shortened: (§2)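 Scores reflect visual plant response relative to untreated controls on a 0 to 100 scale, where 100 means complete control. Treatment was postemergence on 2–18 cm plants in peat-based potting medium, with greenhouse assessment 13–15 days later.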

wild oat (Avena fatua) = assay: Test D postemergence plant response; conditions: for Oat, Wild plant response rating: scale 0 to 100 (0 no effect, 100 complete control); for Plant response rating, Oat, Wild: scale 0 to 100, 0 no effect, 100 complete control
Procedure, shortened: as §2

kochia (Kochia scoparia) [9] = assay: Test D postemergence plant response; conditions: for Kochia plant response rating: scale 0 to 100 (0 no effect, 100 complete control); for Plant response rating, Kochia: scale 0 to 100, 0 no effect, 100 complete control
Procedure, shortened: as §2

[10] = system: barnyardgrass (Echinochloa crus-galli); assay: Test C flooded paddy test plant response; conditions: Flood, 250 g ai/ha; scale of 0 to 100 where 0 is no effect and 100 is complete control; 13 to 15 days
Procedure, shortened: (§3)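 Readout is a visual 0–100 score (100 = complete control) versus controls at 13–15 days. Plants at 2-leaf stage, flooded to 3 cm, treated through paddy water.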

rice (Oryza sativa) = assay: Test C flooded paddy test plant response; conditions: Flood, 250 g ai/ha; scale of 0 to 100 where 0 is no effect and 100 is complete control; 13 to 15 days
Procedure, shortened: as §3

[11] = system: ducksalad (Heteranthera limosa); assay: Test C flooded paddy test plant response; conditions: Flood, 250 g ai/ha; scale of 0 to 100 where 0 is no effect and 100 is complete control; 13 to 15 days
Procedure, shortened: as §3

[12] = system: small-flower umbrella sedge (Cyperus difformis); assay: Test C flooded paddy test plant response; conditions: Flood, 250 g ai/ha; scale of 0 to 100 where 0 is no effect and 100 is complete control; 13 to 15 days
Procedure, shortened: as §3

[13] = system: galium (catchweed bedstraw, Galium aparine); assay: Test B postemergence plant response; conditions: 0 to 100 scale, 0 no effect, 100 complete control
Procedure, shortened: (§4)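 Seedlings in a loam soil and sand mix received a postemergence application of the formulated chemicals at the one- to two-leaf stage (2–10 cm tall). They were kept in a greenhouse for roughly 10 days, then scored for injury relative to untreated plants, 0 meaning no effect and 100 complete control.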

[14] = system: blackgrass (Alopecurus myosuroides); assay: Test B postemergence plant response; conditions: 0 to 100 scale, 0 no effect, 100 complete control
Procedure, shortened: as §4

[15] = 31 g ai/ha, Postemergence, 0 to 100 scale, 0 no effect, 100 complete control
[16] = 31 g ai/ha, Preemergence, 0 to 100 scale where 0 is no effect and 100 is complete control
[17] = 125 g ai/ha, postemergence, 0 to 100 scale, 0 no effect, 100 complete control
[18] = Preemergence, 125 g ai/ha, 0 to 100 scale where 0 is no effect and 100 is complete control

SMILES: Fc1cccc(Oc2ncc(Br)cn2)c1-c1cc(C(F)F)on1 [Compound 118]
- Plant response rating, Barnyardgrass [1, 15]: 70
- Plant response rating, Barnyardgrass [1, 16]: 70
- Plant response rating, Barnyardgrass [1, 17]: 100
- Plant response rating, Barnyardgrass [1, 18]: 100
- Plant response rating, Ryegrass, Italian [2, 15]: 20
- Plant response rating, Ryegrass, Italian [2, 16]: 20
- Plant response rating, Ryegrass, Italian [2, 17]: 80
- Plant response rating, Wheat ([3]; 31 g ai/ha, Postemergence): 20
- Plant response rating, Wheat ([3]; 125 g ai/ha, postemergence): 60
- Plant response rating, Pigweed [4, 15]: 100
- Plant response rating, Pigweed [4, 16]: 100
- Plant response rating, Pigweed [4, 17]: 100
- Plant response rating, Foxtail, Giant [5, 15]: 90
- Plant response rating, Foxtail, Giant [5, 16]: 100
- Plant response rating, Foxtail, Giant [5, 17]: 100
- Plant response rating, Foxtail, Giant [5, 18]: 100
- Plant response rating, Ragweed [6, 15]: 30
- Plant response rating, Ragweed [6, 16]: 20
- Plant response rating, Ragweed [6, 17]: 50
- Plant response rating, Corn (corn (Zea mays); 31 g ai/ha, Postemergence): 50
- Plant response rating, Corn (corn (Zea mays); 125 g ai/ha, postemergence): 100
- Plant response rating, Kochia (kochia (Kochia scoparia) [7]; [15]): 100
- Plant response rating, Kochia (kochia (Kochia scoparia) [7]; [16]): 80
- Plant response rating, Kochia (kochia (Kochia scoparia) [7]; [17]): 100
- Plant response rating, Kochia (kochia (Kochia scoparia) [7]; [18]): 100
- Chickweed plant response rating ([8]; 16 g ai/ha): 75
- Chickweed plant response rating ([8]; 31 g ai/ha): 70
- Plant response rating, Chickweed ([8]; 62 g ai/ha): 90
- Plant response rating, Chickweed ([8]; 125 g ai/ha): 98
- Oat, Wild plant response rating (wild oat (Avena fatua); 16 g ai/ha): 5
- Oat, Wild plant response rating (wild oat (Avena fatua); 31 g ai/ha): 10
- Plant response rating, Oat, Wild (wild oat (Avena fatua); 62 g ai/ha): 15
- Plant response rating, Oat, Wild (wild oat (Avena fatua); 125 g ai/ha): 50
- Kochia plant response rating (kochia (Kochia scoparia) [9]; 16 g ai/ha): 95
- Kochia plant response rating (kochia (Kochia scoparia) [9]; 31 g ai/ha): 95
- Plant response rating, Kochia (kochia (Kochia scoparia) [9]; 62 g ai/ha): 95
- Plant response rating, Kochia (kochia (Kochia scoparia) [9]; 125 g ai/ha): 100
- Barnyardgrass plant response rating [10]: 50
- Rice plant response rating (rice (Oryza sativa)): 45
- Ducksalad plant response rating [11]: 100
- Sedge, Umbrella plant response rating [12]: 100
- Plant response rating, Galium ([13]; 31 g ai/ha, Postemergence): 100
- Plant response rating, Galium ([13]; 125 g ai/ha, postemergence): 100
- Plant response rating, Blackgrass ([14]; 31 g ai/ha, Postemergence): 60
- Plant response rating, Blackgrass ([14]; 125 g ai/ha, postemergence): 100

SMILES: FC(F)c1cc(-c2c(Cl)cccc2Oc2ncc(Cl)cn2)on1 [Compound 120]
- Plant response rating, Barnyardgrass [1, 15]: 50
- Plant response rating, Barnyardgrass [1, 16]: 90
- Plant response rating, Barnyardgrass [1, 17]: 90
- Plant response rating, Barnyardgrass [1, 18]: 100
- Plant response rating, Ryegrass, Italian [2, 15]: 30
- Plant response rating, Ryegrass, Italian [2, 16]: 40
- Plant response rating, Ryegrass, Italian [2, 17]: 90
- Plant response rating, Wheat ([3]; 31 g ai/ha, Postemergence): 0
- Plant response rating, Wheat ([3]; 125 g ai/ha, postemergence): 40
- Plant response rating, Pigweed [4, 15]: 100
- Plant response rating, Pigweed [4, 16]: 100
- Plant response rating, Pigweed [4, 17]: 100
- Plant response rating, Foxtail, Giant [5, 15]: 40
- Plant response rating, Foxtail, Giant [5, 16]: 100
- Plant response rating, Foxtail, Giant [5, 17]: 90
- Plant response rating, Foxtail, Giant [5, 18]: 100
- Plant response rating, Ragweed [6, 15]: 40
- Plant response rating, Ragweed [6, 16]: 10
- Plant response rating, Ragweed [6, 17]: 70
- Plant response rating, Corn (corn (Zea mays); 31 g ai/ha, Postemergence): 30
- Plant response rating, Corn (corn (Zea mays); 125 g ai/ha, postemergence): 40
- Plant response rating, Kochia (kochia (Kochia scoparia) [7]; [15]): 90
- Plant response rating, Kochia (kochia (Kochia scoparia) [7]; [16]): 80
- Plant response rating, Kochia (kochia (Kochia scoparia) [7]; [17]): 90
- Plant response rating, Kochia (kochia (Kochia scoparia) [7]; [18]): 90
- Chickweed plant response rating ([8]; 16 g ai/ha): 95
- Chickweed plant response rating ([8]; 31 g ai/ha): 100
- Plant response rating, Chickweed ([8]; 62 g ai/ha): 100
- Plant response rating, Chickweed ([8]; 125 g ai/ha): 100
- Oat, Wild plant response rating (wild oat (Avena fatua); 16 g ai/ha): 35
- Oat, Wild plant response rating (wild oat (Avena fatua); 31 g ai/ha): 40
- Plant response rating, Oat, Wild (wild oat (Avena fatua); 62 g ai/ha): 55
- Plant response rating, Oat, Wild (wild oat (Avena fatua); 125 g ai/ha): 60
- Kochia plant response rating (kochia (Kochia scoparia) [9]; 16 g ai/ha): 98
- Kochia plant response rating (kochia (Kochia scoparia) [9]; 31 g ai/ha): 100
- Plant response rating, Kochia (kochia (Kochia scoparia) [9]; 62 g ai/ha): 100
- Plant response rating, Kochia (kochia (Kochia scoparia) [9]; 125 g ai/ha): 100
- Barnyardgrass plant response rating [10]: 90
- Rice plant response rating (rice (Oryza sativa)): 90
- Ducksalad plant response rating [11]: 100
- Sedge, Umbrella plant response rating [12]: 95
- Plant response rating, Galium ([13]; 31 g ai/ha, Postemergence): 100
- Plant response rating, Galium ([13]; 125 g ai/ha, postemergence): 100
- Plant response rating, Blackgrass ([14]; 31 g ai/ha, Postemergence): 70
- Plant response rating, Blackgrass ([14]; 125 g ai/ha, postemergence): 90
